Measured values published in patent US9539249B2, “PPAR gamma agonists for treatment of multiple sclerosis” (InteKrin Therapeutics, Inc., priority 2013, dated 2017).
“Also recorded” adds a separate entry of the source. Like-named read-outs stand apart in the source and are kept apart here. Each block holds one compound with its values, some of them ahead of it.

Key:
EAE = EAE relapse model, INT131 treatment begun at first remission; assay type: in vivo, mice; details: for clinical course from the 22nd day following immunization: treated from day 20, vehicle animals relapsed; for relapse rate (percent of animals relapsed): 25th day post-immunization, vehicle 72 percent
Excerpt: EAE is a well-characterized and widely used model of MS. It is one of the few animal models in which drug therapeutic activity in the model often mimics and anticipates the drug's effects in human disease. In this model, mice are immunized with well-defined antigenic fragments of central nervous system myelin, such as fragments of the proteolipid protein (PLP). Over the course of 2 to 3 weeks the immunized animals develop a clinical and histopathologic syndrome of T-cell mediated cerebral autoimmunity that is highly reminiscent of relapsing/remitting MS (RRMS). The similarities between EAE and RRMS include inflammatory cerebral infiltrated and accompanying Th1/Th17 responses to both the disease initiating myelin PLP peptide, and subsequent epitope spread, seen in disease relapse. The animals were immunized with the myelin peptide (PLP^139-151) and the spread epitope peptide (PLP^178-191) which drives disease relapse. Studies consisted of three experimental arms in which the mice were given daily ip injection of vehicle, or either 1 or 3 mg/kg/d of INT131. Following immunization, the animals underwent daily neurological evaluation by an experienced investigator. In these studies treatment began at the time of the first remission. […] Following the expected clinical disease peak at about two weeks post-immunization, symptoms began to ebb as the animals drifted into remission. All of the animals were treated with INT131 on day 20. By the 22nd day following immunization relapse began as expected, however, only in the vehicle treated animals.

[1] = system: infiltrating CD45-positive leukocytes; experiment: CD45-positive leukocyte infiltration in brainstem of EAE mice treated at the peak of disease; assay type: in vivo
Excerpt: Initiating INT131 treatment during remission extends the time subjects remain relapse-free, as compared to vehicle/placebo treatment. However, because there is little active neuroinflammation during remission, this paradigm is not informative about the effects of INT131 on acute neuroinflammation. To better understand the effects of INT131 on the acute inflammatory response we treated mice with EAE at the height of the clinical disease. […] INT131 treatment was begun at the peak of disease (day 20) and brainstems were harvested at day 32, and stained with αCD45 to identify infiltrating leukocytes. CD45 (also known as Leukocyte Common Antigen) is expressed on all hematopoietic cells except erythrocytes and platelets, and is required for B- and T cell-receptor-mediated activation. Thus, CD45 is critical in mediating the inflammatory process. […] These findings unify the clinical and histological findings that INT131 is a potent and effective treatment of acute neuroinflammation in this model of RRMS.

[2] = Tissue distribution of [3H]INT131 after intraperitoneal injection (penetration of the intact BBB); assay type: in vivo, Sprague-Dawley rats; details: for concentration at 6 h: 6 h after ~50 mg/kg ip; for concentration at 24 h: 24 h after ~50 mg/kg ip
Procedure: (§1) To test whether INT131 is able to penetrate the intact BBB INT131 was radiolabeled with tritium (“[^3H]INT131”), prior to intraperitoneal injection into adult Sprague-Dawley rats. The purity of the radiolabeled INT131 was determined by high-performance liquid chromatography (HPLC) fractionation prior to injection, and again at the close of the experiment. […] The test animals were sacrificed at 1, 6 and 24 hours after injection and blood, brain, cerebrospinal fluid (“CSF”), spinal cord, kidney, liver and small bowel were harvested for determination of [^3H]INT131 content by liquid scintillography.

[3] = HPLC fractionation of radiolabeled INT131 before injection and at the close of the experiment; assay type: physicochemical; details: prior to injection and at the close of the experiment
Procedure: as §1

[4] = Sprague-Dawley, CSF, intraperitoneal, rat, read-out: INT131 concentration in CSF
[5] = Sprague-Dawley, blood, intraperitoneal, rat, read-out: INT131 concentration in Blood
[6] = Sprague-Dawley, brain, intraperitoneal, rat, read-out: INT131 concentration in Brain
[7] = Sprague-Dawley, kidney, intraperitoneal, rat, read-out: INT131 concentration in Kidney
[8] = Sprague-Dawley, liver, intraperitoneal, rat, read-out: INT131 concentration in Liver
[9] = Sprague-Dawley, small bowel, intraperitoneal, rat, read-out: INT131 concentration in Small bowel
[10] = Sprague-Dawley, spinal cord, intraperitoneal, rat, read-out: INT131 concentration in Spinal cord

concentration at 1 h ([2]; Sprague-Dawley, CSF, intraperitoneal, 1 h after ~50 mg/kg ip, rat, read-out: INT131 concentration in CSF): 292 ng/g
concentration at 6 h [2, 4]: 2860 ng/g
concentration at 24 h [2, 4]: 5300 ng/g
concentration at 1 h ([2]; Sprague-Dawley, blood, intraperitoneal, 1 h after ~50 mg/kg ip, rat, read-out: INT131 concentration in Blood): 4050 ng/g
concentration at 6 h [2, 5]: 41800 ng/g
concentration at 24 h [2, 5]: 17900 ng/g
concentration at 1 h ([2]; Sprague-Dawley, brain, intraperitoneal, 1 h after ~50 mg/kg ip, rat, read-out: INT131 concentration in Brain): 569 ng/g
concentration at 6 h [2, 6]: 5980 ng/g
concentration at 24 h [2, 6]: 4650 ng/g
concentration at 1 h ([2]; Sprague-Dawley, kidney, intraperitoneal, 1 h after ~50 mg/kg ip, rat, read-out: INT131 concentration in Kidney): 7730 ng/g
concentration at 6 h [2, 7]: 32900 ng/g
concentration at 24 h [2, 7]: 15400 ng/g
concentration at 1 h ([2]; Sprague-Dawley, liver, intraperitoneal, 1 h after ~50 mg/kg ip, rat, read-out: INT131 concentration in Liver): 24400 ng/g
concentration at 6 h [2, 8]: 141000 ng/g
concentration at 24 h [2, 8]: 36400 ng/g
Kp at 6 h ([2]; Sprague-Dawley, rat, brain and spinal cord relative to blood, intraperitoneal, 50 mg/kg, 6 hours after injection, read-out: level of INT131 in brain and spinal cord relative to the level found in blood): ~0.1
concentration at 1 day ([2]; Sprague-Dawley, rat, brain and spinal cord, intraperitoneal, 50 mg/kg, 1 day after injection, read-out: absolute amount of INT131 in the brain and spinal cord): > 4000 ng/g
concentration at 1 h ([2]; Sprague-Dawley, rat, neural compartments (brain tissue), intraperitoneal, one hour after single administration of ~50 mg/kg, read-out: average amount of INT131 in the neural compartments): < 500 ng/g
Kp at 24 h ([2]; Sprague-Dawley, rat, neural tissues relative to circulation (blood), intraperitoneal, 50 mg/kg, 24 hours after injection, read-out: level of INT131 in neural tissues relative to that found in the circulation): 0.25
concentration at 1 h ([2]; Sprague-Dawley, small bowel, intraperitoneal, 1 h after ~50 mg/kg ip, rat, read-out: INT131 concentration in Small bowel): 19700 ng/g
concentration at 6 h [2, 9]: 223000 ng/g
concentration at 24 h [2, 9]: 34500 ng/g
concentration at 1 h ([2]; Sprague-Dawley, spinal cord, intraperitoneal, 1 h after ~50 mg/kg ip, rat, read-out: INT131 concentration in Spinal cord): 478 ng/g
concentration at 6 h [2, 10]: 4810 ng/g
concentration at 24 h [2, 10]: 4310 ng/g
increase of the amount of INT131 in the neural tissues versus 1 hour ([2]; at 6 and 24 hours): approximately 10 fold
amount in neural compartments, fold less than that found in the circulation ([2]; one hour after single administration of ~50 mg/kg): approximately 10 fold
SMILES: O=S(=O)(Nc1cc(Cl)c(Oc2cnc3ccccc3c2)c(Cl)c1)c1ccc(Cl)cc1Cl [INT131]
clinical course from the 22nd day following immunization (EAE; 1 mg/kg): continued to improve slightly
relapse rate (percent of animals relapsed) (EAE; 1 mg/kg/d ip): 9%
clinical course from the 22nd day following immunization (EAE; 3 mg/kg): remained stable
relapse rate (percent of animals relapsed) (EAE; 3 mg/kg/d ip): 16%
disease burden among treated animals that relapse (EAE; in comparison to vehicle treated mice): exceptionally mild
symptoms of animals with EAE (EAE; mouse, in vivo): becoming and remaining mostly symptom-free
effect on relapse (EAE; treatment begun at first remission): virtually blocks relapse
clinical symptoms ([1]; treatment at the height of clinical disease): rapid improvement in clinical symptoms
infiltrating CD45-positive leukocytes in brainstem ([1]; treatment from day 20 (peak of disease), brainstems harvested day 32, either concentration, compared to vehicle): paucity of infiltrating CD45-positive leukocytes; also recorded: paucity of infiltrating white cells

SMILES: O=S(=O)(Nc1cc(Cl)c(Oc2cnc3ccccc3c2)c(Cl)c1)c1ccc(Cl)cc1Cl [[^3H]INT131]
stability of radiolabeled material over the course of the study (HPLC) [3]: virtually all of the radiolabeled material was found in a single peak
